≈ marks a conversion by molar mass, not a printed value.
Assays:
Assay in all cases: ≥ marks a high value that may be exact or a test limit, other limits are often not marked, values filed in µg/mL are converted to µM
[1] = system: Streptococcus iniae FP5228
[2] = system: Vibrio alginolyticus KCCM 2928
[3] = system: Vibrio harveyi ATCC 14126
[4] = system: Vibrio ordalii KCCM 41669
[5] = system: Edwardsiella tarda FP4130
[6] = system: Aeromonas salmonicida RFAS1
[7] = system: Bacillus cereus ATCC 11778
[8] = system: Pseudomonas aeruginosa ATCC 27853
[9] = system: Staphylococcus aureus ATCC 25923
[10] = system: Vibrio cholerae O1 Inaba
[11] = system: Escherichia coli ATCC 25922
[12] = system: Enterococcus faecalis ATCC 29212
[13] = system: Staphylococcus epidermidis ATCC 12228
[14] = system: Staphylococcus aureus ATCC 43300
[15] = system: Escherichia coli O157
[16] = system: Shigella sonnei ATCC 11060
[17] = system: Salmonella enterica subsp. enterica serovar Typhimurium ATCC 13311
[18] = system: Staphylococcus aureus E4049
[19] = system: Staphylococcus aureus ATCC 9144
[20] = system: Staphylococcus aureus 3968
[21] = system: Staphylococcus aureus 5118
[22] = system: Candida krusei CBS 573
[23] = system: Candida albicans ATCC 10231
[24] = system: Candida parapsilosis CBS 604
[25] = system: Saccharomyces cerevisiae SZMC 0644
[26] = system: Staphylococcus aureus ATCC 6538P
[27] = system: Staphylococcus aureus SR1550
[28] = system: Escherichia coli K-12 594
[29] = system: Acinetobacter baumannii ATCC 19606
[30] = system: Pseudomonas aeruginosa ATCC 47085
[31] = system: Klebsiella pneumoniae ATCC 13883

**Q.** `CC[C@H](C)[C@H](NC(=O)[C@H](CC(N)=O)NC(=O)[C@H](CCCCN)NC(=O)[C@H](Cc1c[nH]c2ccccc12)NC(=O)CNC(=O)[C@H](CCC(=O)O)NC(=O)[C@H](CCCCN)NC(=O)[C@H](CC(C)C)NC(=O)[C@H](CCC(=O)O)NC(=O)[C@H](CCC(N)=O)NC(=O)[C@H](Cc1ccccc1)NC(=O)[C@@H](N)Cc1ccccc1)C(=O)N[C@@H](CCCCN)C(=O)N[C@@H](CCCCN)C(=O)N[C@@H](C)C(=O)O` [FFQELKEGWKNIKKA] was tested. Which MIC [1] did it give?
**A.** The MIC was 15.6 µM (≈ 29.1 µg/mL).

**Q.** What about the MIC [2] of the same molecule?
**A.** Its MIC is 7.8 µM (≈ 14.6 µg/mL).

**Q.** What about the MIC [3] of the same molecule?
**A.** Its MIC is no less than 125 µM.

**Q.** And the MIC [4]?
**A.** The MIC was 2 µM (≈ 3.73 µg/mL).

**Q.** And the MIC [5]?
**A.** Its MIC is no less than 62.5 µM.

**Q.** What about the MIC [6] of the same molecule?
**A.** Its MIC is 7.8 µM (≈ 14.6 µg/mL).

**Q.** Which MIC [7] does the source give for `CC(C)C[C@H](NC(=O)CNC(=O)[C@H](CCCN=C(N)N)NC(=O)[C@H](CS)NC(=O)[C@H](CC(=O)O)NC(=O)CNC(=O)CNC(=O)[C@H](CO)NC(=O)[C@@H](N)Cc1ccccc1)C(=O)N[C@@H](CCCN=C(N)N)C(=O)N[C@@H](CCCN=C(N)N)C(=O)N[C@@H](CCCN=C(N)N)C(=O)N[C@@H](CS)C(=O)N[C@@H](Cc1ccccc1)C(=O)N[C@@H](CS)C(=O)N[C@H](C(=O)N[C@@H](CCCN=C(N)N)C(N)=O)[C@@H](C)O` [FSGGDCRGLRRRCFCTR] here?
**A.** Its MIC is no less than 251 µM.

**Q.** And the MIC [8]?
**A.** Its MIC is greater than 251 µM.

**Q.** What about the MIC [9] of the same molecule?
**A.** Its MIC is greater than 251 µM.

**Q.** What about the MIC [10] of the same molecule?
**A.** The MIC was no less than 126 µM.

**Q.** And the MIC [11]?
**A.** Its MIC is greater than 251 µM.

**Q.** What about the MIC [12] of the same molecule?
**A.** Its MIC is 251 µM (≈ 500 µg/mL).

**Q.** What about the MIC [13] of the same molecule?
**A.** Its MIC is 15.7 µM (≈ 31.2 µg/mL).

**Q.** What about the MIC [14] of the same molecule?
**A.** Its MIC is greater than 251 µM.

**Q.** And the MIC [15]?
**A.** The MIC was no less than 229 µM.

**Q.** And the MIC [16]?
**A.** The MIC was no less than 126 µM.

**Q.** What about the MIC [17] of the same molecule?
**A.** Its MIC is 31.4 µM (≈ 62.5 µg/mL).

**Q.** Which results are given for `CSCC[C@H](NC(=O)[C@H](C)NC(=O)[C@H](CC(C)C)NC(=O)[C@@H](N)CCCCN)C(=O)N[C@@H](CO)C(=O)N[C@@H](CCSC)C(=O)N[C@@H](CO)C(=O)N[C@@H](Cc1ccccc1)C(=O)N[C@@H](CC(N)=O)C(=O)N[C@@H](Cc1ccccc1)C(=O)N[C@H](C(=O)N[C@@H](Cc1ccccc1)C(=O)N[C@@H](Cc1ccc(O)cc1)C(=O)N[C@@H](Cc1ccccc1)C(=O)N[C@@H](CCSC)C(=O)N[C@H](C(=O)N[C@@H](CC(N)=O)C(=O)N[C@@H](Cc1ccccc1)C(=O)N[C@@H](CC(=O)O)C(=O)N[C@@H](CC(=O)O)C(=O)O)C(C)C)C(C)C` [KLAMSMSFNFVFYFMVNFDD]?
**A.** MIC [18]: 15.5 µM (≈ 38 µg/mL); MIC [19]: ≥ 125 µM; MIC [20]: ≥ 250 µM; MIC [21]: ≥ 125 µM

**Q.** Which MIC [22] does the source give for `NCCCC[C@@H]1NC(=O)[C@H](CCCCN)NC(=O)[C@H](Cc2cnc[nH]2)NC(=O)[C@H](CCCCN)NC(=O)[C@@H](NC(=O)[C@H](CC(N)=O)NC(=O)[C@@H](N)CC(N)=O)CSSC[C@@H](C(=O)O)NC(=O)CNC(=O)[C@H](CO)NC(=O)CNC1=O` [NNCKHKKGSGC] here?
**A.** The MIC was no less than 42.5 µM.

**Q.** And the MIC [23]?
**A.** Its MIC is 42.5 µM (≈ 49.9 µg/mL).

**Q.** What about the MIC [24] of the same molecule?
**A.** The MIC was no less than 42.5 µM.

**Q.** And the MIC [25]?
**A.** Its MIC is no less than 42.5 µM.

**Q.** Which MIC [26] does the source give for `CC(C)C[C@H](NC(=O)[C@H](CCCN=C(N)N)NC(=O)[C@H](CC(C)C)NC(=O)[C@H](CC(C)C)NC(=O)[C@H](CC(C)C)NC(=O)[C@H](CC(C)C)NC(=O)[C@H](CCCCN)NC(=O)[C@H](CC(C)C)NC(=O)[C@@H](N)CCCN=C(N)N)C(=O)N[C@@H](CCCCN)C(N)=O` [RLKLLLLRLK] here?
**A.** The MIC was 1.58 µM (≈ 2 µg/mL).

**Q.** And the MIC [27]?
**A.** The MIC was 27.7 µM (≈ 35 µg/mL).

**Q.** What about the MIC [28] of the same molecule?
**A.** The MIC was 15.8 µM (≈ 20 µg/mL).

**Q.** Which MIC [29] does the source give for `CC(=O)N[C@@H](CCCN=C(N)N)C(=O)N1CCC[C@H]1C(=O)N[C@@H](CC(=O)O)C(=O)N[C@@H](CCCCN)C(=O)N1CCC[C@H]1C(=O)N[C@@H](CCCN=C(N)N)C(=O)N1CCC[C@H]1C(=O)N[C@@H](Cc1ccc(O)cc1)C(=O)N[C@@H](CC(C)C)C(=O)N1CCC[C@H]1C(=O)N[C@@H](CCCN=C(N)N)C(=O)N1CCC[C@H]1C(=O)N[C@@H](CCCN=C(N)N)C(=O)N1CCC[C@H]1C(=O)N1CCC[C@H]1C(=O)N[C@@H](CCCN=C(N)N)C(=O)N1CCC[C@H]1C(=O)N[C@H](C(=O)N[C@@H](CCCN=C(N)N)C(N)=O)C(C)C` [RPDKPRPYLPRPRPPRPVR] here?
**A.** Its MIC is greater than 100 µM.

**Q.** What about the MIC [30] of the same molecule?
**A.** Its MIC is no less than 100 µM.

**Q.** What about the MIC [11] of the same molecule?
**A.** Its MIC is 2.6 µM (≈ 6.22 µg/mL).

**Q.** What about the MIC [31] of the same molecule?
**A.** The MIC was 2 µM (≈ 4.78 µg/mL).

Source: DBAASP
